Assay results published in US12252524B2, “GIP/GLP1 co-agonist compounds” (Eli Lilly and Company, priority 2018, dated 2025).
Numbered stars: 1 amine (or outer) side, 2 acyl side, 3 side chain; on linkers, the order of the positions; unused ones are H or OH. Square brackets hold non-standard residues; d marks the D form. Side chains are listed from the residue outwards. Peptide text beside a SMILES is read from it. * marks the point of attachment. C20 diacid = O=C(O)CCCCCCCCCCCCCCCCCCC(=O)*; C18 diacid = O=C(O)CCCCCCCCCCCCCCCCC(=O)*; αMePhe(2-F) = C[C@](N)(Cc1ccccc1F)C(=O)O; C16 diacid = O=C(O)CCCCCCCCCCCCCCC(=O)*; γGlu = O=C(O)[C@H](CCC(=O)[*:2])N[*:1]; 4Pal = N[C@@H](Cc1ccncc1)C(=O)O; αMeL = CC(C)C[C@](C)(N)C(=O)O; AEEA = NCCOCCOCC(=O)O; Aib = CC(C)(N)C(=O)O

How the values were obtained:
human Gcg receptor = target: T1, human Gcg receptor (Homo sapiens, UniProt P47871); test: [125I]-Glucagon binding (SPA), human Gcg receptor; conditions: read-out: hGLcgR Ki, nM (SEM, n)
T1 construct: expressed in transfected cells; crude membranes
Method in brief: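 Crude membranes from cells expressing the receptor, prepared by hypotonic lysis in 50 mM Tris HCl pH 7.5 with protease inhibitors, homogenization and differential centrifugation, were used in a WGA-bead SPA. Binding buffer: 25 mM HEPES pH 7.4, 2.5 mM CaCl2, 1 mM MgCl2, bacitracin, Tween-20.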

human GIP receptor = target: T2, human GIP receptor (Homo sapiens, UniProt P48546); test: [125I]-GIP binding (SPA), human GIP receptor; conditions: read-out: hGIPR Ki, nM (SEM, n)
T2 construct: expressed in transfected cells; crude membranes
T2 sequence (P48546 22-466): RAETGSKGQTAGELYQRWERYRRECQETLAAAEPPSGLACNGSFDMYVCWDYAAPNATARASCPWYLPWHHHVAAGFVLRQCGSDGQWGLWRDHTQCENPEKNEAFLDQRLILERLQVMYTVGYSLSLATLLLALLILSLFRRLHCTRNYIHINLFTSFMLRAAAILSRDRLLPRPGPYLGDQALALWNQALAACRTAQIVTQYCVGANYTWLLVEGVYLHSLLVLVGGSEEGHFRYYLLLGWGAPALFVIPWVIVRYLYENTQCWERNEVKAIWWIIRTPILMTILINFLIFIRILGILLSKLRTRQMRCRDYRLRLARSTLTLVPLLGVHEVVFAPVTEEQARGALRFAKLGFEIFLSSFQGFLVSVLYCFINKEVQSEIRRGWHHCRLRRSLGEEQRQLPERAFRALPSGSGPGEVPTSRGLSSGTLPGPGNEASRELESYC

[1] = target: human GLP-1 receptor (GLP-1R) (Homo sapiens, UniProt P43220); test: cAMP pharmacological functional assay in presence of casein, hGLP-1R; assay type: cell-based; conditions: HEK293 cells expressing hGLP-1R, 0.1% Casein, geometric mean; read-out: hGLP1R cAMP Rel EC50 nM (SEM, n)
[2] = target: T3, gastric inhibitory peptide receptor (GIPR) (Homo sapiens, UniProt P48546); test: cAMP pharmacological functional assay in presence of casein, hGIPR; assay type: cell-based; conditions: HEK293 cells expressing hGIPR, 0.1% Casein, geometric mean; read-out: hGIPR cAMP Rel EC50 nM (SEM, n)
T3 sequence (P48546 22-466): T2 sequence (P48546 22-466)

human GLP-1R = human GLP-1R (Homo sapiens, UniProt P43220); test: [125I]-GLP-1 binding (SPA), human GLP-1 receptor; design: expressed in transfected cells; crude membranes; conditions: read-out: hGLP1R Ki, (nM) (SEM, n)
Method in brief: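 Crude-membrane binding assay; one membrane prep included 1 mM MgCl2 and 25 units/ml DNAse I during lysis. Assay buffer at pH 7.4 contains 0.1% (w/v) bacitracin and 0.003% (w/v) TWEEN-20. Ki is reported as geometric mean.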

Sequence of human GLP-1 receptor (GLP-1R) (P43220 24-463): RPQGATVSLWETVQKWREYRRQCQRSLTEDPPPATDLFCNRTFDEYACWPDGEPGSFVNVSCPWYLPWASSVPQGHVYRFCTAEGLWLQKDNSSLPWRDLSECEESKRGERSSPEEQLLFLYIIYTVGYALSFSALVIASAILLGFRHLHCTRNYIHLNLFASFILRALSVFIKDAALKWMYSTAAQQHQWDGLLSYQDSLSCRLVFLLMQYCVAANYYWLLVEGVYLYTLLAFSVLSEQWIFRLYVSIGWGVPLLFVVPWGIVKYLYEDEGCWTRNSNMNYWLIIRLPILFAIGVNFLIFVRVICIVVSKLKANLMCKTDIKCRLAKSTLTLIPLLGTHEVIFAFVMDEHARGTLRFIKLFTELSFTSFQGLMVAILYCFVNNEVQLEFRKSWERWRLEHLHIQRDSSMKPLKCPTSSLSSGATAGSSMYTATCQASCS
Sequence of human GLP-1R (P43220 24-463): as above
T1 sequence (P47871 26-477): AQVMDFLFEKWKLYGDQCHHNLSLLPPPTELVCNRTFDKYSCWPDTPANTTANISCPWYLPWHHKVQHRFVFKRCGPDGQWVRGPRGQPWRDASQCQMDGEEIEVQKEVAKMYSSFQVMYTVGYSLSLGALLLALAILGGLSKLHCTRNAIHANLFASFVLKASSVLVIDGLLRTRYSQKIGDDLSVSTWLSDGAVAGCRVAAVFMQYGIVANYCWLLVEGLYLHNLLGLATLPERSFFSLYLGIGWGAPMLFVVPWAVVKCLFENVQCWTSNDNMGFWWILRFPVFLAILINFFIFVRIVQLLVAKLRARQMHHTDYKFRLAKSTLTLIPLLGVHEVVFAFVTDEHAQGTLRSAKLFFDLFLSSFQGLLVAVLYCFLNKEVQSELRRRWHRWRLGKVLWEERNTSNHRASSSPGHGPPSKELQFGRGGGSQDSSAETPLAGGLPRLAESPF

Row | SMILES | Ki (human Gcg receptor) [nM] | Ki (human GIP receptor) [nM] | EC50 [1] [nM] | EC50 [2] [nM] | Ki (human GLP-1R) [nM]
1 | CC[C@H](C)[C@H](NC(=O)[C@H](CC(C)C)NC(=O)[C@H](Cc1ccc(O)cc1)NC(=O)[C@@H](CCC(=O)O)NC(=O)[C@@H](NC(=O)[C@H](Cc1ccccc1)NC(=O)[C@H](CCC(=O)O)NC(=O)C(C)(C)NC(=O)[C@H](CCC(N)=O)NC(=O)[C@H](C)NC(=O)[C@H](CCCCNC(=O)COCCOCCNC(=O)COCCOCCNC(=O)CC[C@H](NC(=O)CCCCCCCCCCCCCCCCCCC(=O)O)C(=O)O)NC(=O)[C@H](CCC(=O)O)NC(=O)[C@H](CC(=O)O)NC(=O)[C@H](CC(C)C)NC(=O)[C@](C)(CC(C)C)NC(=O)[C@@H](NC(=O)[C@H](CO)NC(=O)[C@H](C)NC(=O)[C@H](CC(=O)O)NC(=O)[C@H](CO)NC(=O)[C@@H](NC(=O)[C@](C)(Cc1ccccc1F)NC(=O)[C@@H](NC(=O)CNC(=O)[C@H](CCC(=O)O)NC(=O)C(C)(C)NC(=O)[C@@H](N)Cc1ccc(O)cc1)[C@@H](C)O)[C@@H](C)O)[C@@H](C)CC)[C@@H](C)CC)C(=O)N[C@@H](CCC(=O)O)C(=O)NCC(=O)NCC(=O)N1CCC[C@H]1C(=O)N[C@@H](CO)C(=O)N[C@@H](CO)C(=O)NCC(=O)N[C@@H](C)C(=O)N1CCC[C@H]1C(=O)N1CCC[C@H]1C(=O)N1CCC[C@H]1C(=O)N[C@@H](CO)C(N)=O [Example 192] (H-Y[Aib]EGT[αMePhe(2-F)]TSDASI[αMeL]LDEK([AEEA-AEEA-γGlu-C20 diacid])AQ[Aib]EFI[dE]YLIEGGPSSGAPPPS-NH2; N-terminus assumed) | > 1110 | 0.118 | 0.0289 | 0.0615 | 2.89
2 | CC[C@H](C)[C@H](NC(=O)[C@H](CC(C)C)NC(=O)[C@H](Cc1ccc(O)cc1)NC(=O)[C@@H](CCC(=O)O)NC(=O)[C@@H](NC(=O)[C@H](Cc1ccccc1)NC(=O)[C@H](CCC(=O)O)NC(=O)C(C)(C)NC(=O)[C@H](CCC(N)=O)NC(=O)[C@H](C)NC(=O)[C@H](CCCCNC(=O)COCCOCCNC(=O)COCCOCCNC(=O)CC[C@H](NC(=O)CCCCCCCCCCCCCCCCCCC(=O)O)C(=O)O)NC(=O)[C@H](CCCCN)NC(=O)[C@H](CC(=O)O)NC(=O)[C@H](CC(C)C)NC(=O)[C@](C)(CC(C)C)NC(=O)[C@@H](NC(=O)[C@H](CO)NC(=O)[C@H](Cc1ccncc1)NC(=O)[C@H](CC(=O)O)NC(=O)[C@H](CO)NC(=O)[C@@H](NC(=O)[C@](C)(Cc1ccccc1F)NC(=O)[C@@H](NC(=O)CNC(=O)[C@H](CCC(=O)O)NC(=O)C(C)(C)NC(=O)[C@@H](N)Cc1ccc(O)cc1)[C@@H](C)O)[C@@H](C)O)[C@@H](C)CC)[C@@H](C)CC)C(=O)N[C@@H](CCC(=O)O)C(=O)NCC(=O)NCC(=O)N1CCC[C@H]1C(=O)N[C@@H](CO)C(=O)N[C@@H](CO)C(=O)NCC(=O)N[C@@H](C)C(=O)N1CCC[C@H]1C(=O)N1CCC[C@H]1C(=O)N1CCC[C@H]1C(=O)N[C@@H](CO)C(N)=O [Example 203] (H-Y[Aib]EGT[αMePhe(2-F)]TSD[4Pal]SI[αMeL]LDKK([AEEA-AEEA-γGlu-C20 diacid])AQ[Aib]EFI[dE]YLIEGGPSSGAPPPS-NH2; N-terminus assumed) | 845 | 0.0337 | 0.0679 | 0.0387 | 3.9
3 | CC[C@H](C)[C@H](NC(=O)[C@H](CC(C)C)NC(=O)[C@H](Cc1ccc(O)cc1)NC(=O)[C@@H](CCC(=O)O)NC(=O)[C@@H](NC(=O)[C@H](Cc1ccccc1)NC(=O)[C@H](CCC(=O)O)NC(=O)C(C)(C)NC(=O)[C@H](CCC(N)=O)NC(=O)[C@H](C)NC(=O)[C@H](CCCCNC(=O)COCCOCCNC(=O)COCCOCCNC(=O)CCCCCCCCCCCCCCCCC(=O)O)NC(=O)[C@H](CCC(=O)O)NC(=O)[C@H](CC(=O)O)NC(=O)[C@H](CC(C)C)NC(=O)[C@](C)(CC(C)C)NC(=O)[C@@H](NC(=O)[C@H](CO)NC(=O)[C@H](Cc1ccncc1)NC(=O)[C@H](CC(=O)O)NC(=O)[C@H](CO)NC(=O)[C@@H](NC(=O)[C@](C)(Cc1ccccc1F)NC(=O)[C@@H](NC(=O)CNC(=O)[C@H](CCC(=O)O)NC(=O)C(C)(C)NC(=O)[C@@H](N)Cc1ccc(O)cc1)[C@@H](C)O)[C@@H](C)O)[C@@H](C)CC)[C@@H](C)CC)C(=O)N[C@@H](CCC(=O)O)C(=O)NCC(=O)NCC(=O)N1CCC[C@H]1C(=O)N[C@@H](CO)C(=O)N[C@@H](CO)C(=O)NCC(=O)N[C@@H](C)C(=O)N1CCC[C@H]1C(=O)N1CCC[C@H]1C(=O)N1CCC[C@H]1C(=O)N[C@@H](CO)C(N)=O [Example 205] (H-Y[Aib]EGT[αMePhe(2-F)]TSD[4Pal]SI[αMeL]LDEK([AEEA-AEEA-C18 diacid])AQ[Aib]EFI[dE]YLIEGGPSSGAPPPS-NH2; N-terminus assumed) | 438 | 0.0367 | 0.0261 | 0.0281 | 3.05
4 | CC[C@H](C)[C@H](NC(=O)[C@H](CC(C)C)NC(=O)[C@H](Cc1ccc(O)cc1)NC(=O)[C@@H](CCC(=O)O)NC(=O)[C@@H](NC(=O)[C@H](Cc1ccccc1)NC(=O)[C@H](CCC(=O)O)NC(=O)C(C)(C)NC(=O)[C@H](CCC(N)=O)NC(=O)[C@H](C)NC(=O)[C@H](CCCCNC(=O)COCCOCCNC(=O)COCCOCCNC(=O)CCCCCCCCCCCCCCCCCCC(=O)O)NC(=O)[C@H](CCC(=O)O)NC(=O)[C@H](CC(=O)O)NC(=O)[C@H](CC(C)C)NC(=O)[C@](C)(CC(C)C)NC(=O)[C@@H](NC(=O)[C@H](CO)NC(=O)[C@H](Cc1ccncc1)NC(=O)[C@H](CC(=O)O)NC(=O)[C@H](CO)NC(=O)[C@@H](NC(=O)[C@](C)(Cc1ccccc1F)NC(=O)[C@@H](NC(=O)CNC(=O)[C@H](CCC(=O)O)NC(=O)C(C)(C)NC(=O)[C@@H](N)Cc1ccc(O)cc1)[C@@H](C)O)[C@@H](C)O)[C@@H](C)CC)[C@@H](C)CC)C(=O)N[C@@H](CCC(=O)O)C(=O)NCC(=O)NCC(=O)N1CCC[C@H]1C(=O)N[C@@H](CO)C(=O)N[C@@H](CO)C(=O)NCC(=O)N[C@@H](C)C(=O)N1CCC[C@H]1C(=O)N1CCC[C@H]1C(=O)N1CCC[C@H]1C(=O)N[C@@H](CO)C(N)=O [Example 206] (H-Y[Aib]EGT[αMePhe(2-F)]TSD[4Pal]SI[αMeL]LDEK([AEEA-AEEA-C20 diacid])AQ[Aib]EFI[dE]YLIEGGPSSGAPPPS-NH2; N-terminus assumed) | 176 | 0.0814 | 0.027 | 0.0409 | 5.27
5 | CC[C@H](C)[C@H](NC(=O)[C@H](CC(C)C)NC(=O)[C@H](Cc1ccc(O)cc1)NC(=O)[C@@H](CCC(=O)O)NC(=O)[C@@H](NC(=O)[C@H](Cc1ccccc1)NC(=O)[C@H](CCC(=O)O)NC(=O)C(C)(C)NC(=O)[C@H](CCC(N)=O)NC(=O)[C@H](C)NC(=O)[C@H](CCCCNC(=O)COCCOCCNC(=O)COCCOCCNC(=O)CC[C@H](NC(=O)CCCCCCCCCCCCCCC(=O)O)C(=O)O)NC(=O)[C@H](CCC(=O)O)NC(=O)[C@H](CC(=O)O)NC(=O)[C@H](CC(C)C)NC(=O)[C@](C)(CC(C)C)NC(=O)[C@@H](NC(=O)[C@H](CO)NC(=O)[C@H](Cc1ccc(O)cc1)NC(=O)[C@H](CC(=O)O)NC(=O)[C@H](CO)NC(=O)[C@@H](NC(=O)[C@](C)(Cc1ccccc1F)NC(=O)[C@@H](NC(=O)CNC(=O)[C@H](CCC(=O)O)NC(=O)C(C)(C)NC(=O)[C@@H](N)Cc1ccc(O)cc1)[C@@H](C)O)[C@@H](C)O)[C@@H](C)CC)[C@@H](C)CC)C(=O)N[C@@H](CCC(=O)O)C(=O)NCC(=O)NCC(=O)N1CCC[C@H]1C(=O)N[C@@H](CO)C(=O)N[C@@H](CO)C(=O)NCC(=O)N[C@@H](C)C(=O)N1CCC[C@H]1C(=O)N1CCC[C@H]1C(=O)N1CCC[C@H]1C(=O)N[C@@H](CO)C(N)=O [Example 208] (H-Y[Aib]EGT[αMePhe(2-F)]TSDYSI[αMeL]LDEK([AEEA-AEEA-γGlu-C16 diacid])AQ[Aib]EFI[dE]YLIEGGPSSGAPPPS-NH2) | > 1060 | 0.0537 | 0.0753 | 0.0371 | 2.13
